Assay results taken from patent publication US11464763B2, “Parasiticidal compositions comprising an isoxazoline active agent, methods and uses thereof” (BOEHRINGER INGELHEIM ANIMAL HEALTH USA INC., priority 2011, dated 2022).
Converted amounts (≈) assume the structure as drawn.

What was measured:
Ixodes ricinus = assay: Spot-on efficacy against induced Ixodes ricinus tick infestations in cats (Example 10); type: in vivo; details: for prevention of the infestation of I. ricinus: 2.5% w/v in DMI
Description: The efficacy of spot-on formulations comprising Cmpd. A were studied against induced infestations of Ixodes ricinus ticks in cats. Three treatment groups with six cats per group were randomly allocated: Group 1—Control, untreated; Group 2—Cmpd. A (2.5% w/v in DMI) at 0.1 ml/kg body weight (2.5 mg/kg); and Group 3—Cmpd. A (5.0% w/v in DMI) at 0.1 ml/kg body weight (5 mg/kg). Treatment was administered once on Day 0 and efficacy was assessed based on 48-hour tick (I. ricinus) counts following weekly experimental challenge from Day 7 on. […] In fact, the topical spot-on formulation offered substantial protection against I. ricinus ticks until the last day of assessment—Day 93. Due to limitations on tick availability 5 mg/kg was tested only up to Day 44 with 100% efficacy. The excellent long-lasting efficacy of the formulation of the invention against I. ricinus ticks in cats is very surprising and unexpected.

Haematobia irritans = assay: Pour-on efficacy against Haematobia irritans (horn fly) in cattle (Example 14); type: in vivo; details: for % Reduction: Group 2: pour-on 10% in DES, 1 ml/10 kg
Description: The efficacy of a pour-on formulation of the invention comprising isoxazoline Compound A was tested and compared with an untreated control. Two healthy, female Angus crossbread cattle of one year of age weighing between 224 to 330 kg were used in each study group. Cattle in Group 1 were untreated (control) and cattle in Group 2 were treated with a pour-on formulation comprising Compound A at a concentration of 10% (w/v) in DES at a dose of 1 ml/10 kg once on Day 0. The formulation was applied by measuring the required amount of the solution into a marked disposable syringe and applying the material evenly along the mid-line of the back of each animal from the withers to the tail head. Each animal was infested with approximately 200 horn flies released into each of the animal rooms on Day 1, approximately 24 hours post treatment. Approximately 200 horn flies were released again on Days 7, 14, 21, 28 and 36. Horn fly counts were performed at 5 hours and 24 hours after each infestation. Tables 14A and 14B below show the efficacy of the pour-on formulation of the invention.

Linognathus vituli = assay: Pour-on efficacy against Linognathus vituli (sucking lice) in cattle (Example 16); type: in vivo
Description: The efficacy of two pour-on formulations of the invention comprising isoxazoline Compound A at doses of 2.5 mg/kg and 10 mg/kg were tested against natural and induced infestations with Linognathus vituli (sucking lice) in cattle compared with an untreated control. Four healthy head of cattle weighing between 100 to 300 kg were used in each study group. Cattle in Group 1 were untreated (control). Cattle in Group 2 were treated on Day 0 with a pour-on formulation comprising Compound A at a concentration of 2.5% (w/v) in DES at a dose of 2.5 mg/kg; and cattle in Group 3 were treated on Day 0 with a pour-on formulation comprising Compound A at a concentration of 10% (w/v) in DES at a dose of 10 mg/kg. The formulation was applied by measuring the required amount of the solution into a marked disposable syringe and applying the material evenly along the mid-line of the back of each animal from the withers to the tail head.
Live lice (adults plus nymphs) were counted on days 2, 7, 14, 21, 28, 35, 42, 49 and 56 by counting lice on six selected sites approximately 5 cm×15 cm on the body surface of the animal by direct examination. In the absence of lice on the selected sites, a thorough body search was conducted. The total louse counts per animal were determined by summation of the live louse numbers at each site per animal. Tables 17A and 17B below show the efficacy of the two pour-on formulations against Linognathus vituli over 56 days. As the tables show, both pour-on formulations were efficacious through at least day 56 of the study with 100% efficacy observed starting day 7. Efficacy on day 2 of the study was greater than 90% in each of the study groups. The long lasting efficacy against Linognathus vituli from one topical treatment is unexpected and surprising.

D. variabilis = assay: Efficacious plasma concentration (EC90) against D. variabilis ticks in dogs (Example 13); type: in vivo, Dermacentor variabilis; details: for EC90 (concentration required to achieve 90% efficacy): plasma concentration
Description: Blood samples were collected from all dogs in the study on Days −6, 0 (at 4 h and 12 h), 1, 2, 9, 16, 23, 30, 36, 44, 51, 58, 64, 72, 79 and 86. Plasma samples were analyzed for the concentration of Compound A using an LC/MS/MS analytical method that was GLP validated for the purpose.
Plasma concentrations of Compound A from dogs in the studies of Examples 1 and 4 were determined according to the description in Example 1, and the plasma concentration versus % efficacy against A. americanum and D. variabilis were fit to a Sigmoidal Emax model. […] Since Compound A is systemically active, the lower concentration of the compound in the plasma required to achieve 90% efficacy from the topical compositions of the invention is surprising and unexpected.

O=C(CNC(=O)c1ccc(C2=NOC(c3cc(Cl)cc(C(F)(F)F)c3)(C(F)(F)F)C2)c2ccccc12)NCC(F)(F)F (centres unmarked) [Compound A, 4-[5-[3-chloro-5-(trifluoromethyl)phenyl]-4,5-dihydro-5-(trifluoromethyl)-3-isoxazolyl]-N-[2-oxo-2-[(2,2,2-trifluoroethyl)amino]ethyl]-1-naphthalanecarboxamide]
efficacy against I. ricinus (Ixodes ricinus; 5 mg/kg, up to Day 44): 100% | prevention of the infestation of I. ricinus (Ixodes ricinus; 2.5 mg/kg, until Day 56): completely prevented | prevention of the infestation of I. ricinus (Ixodes ricinus; 2.5 mg/kg, until at least Day 77): > 90% | % Reduction Ticks (Ixodes ricinus; Group 2: 2.5% w/v in DMI, 2.5 mg/kg, Day 2): 23.71% | % Reduction Ticks (Ixodes ricinus; Group 2: 2.5% w/v in DMI, 2.5 mg/kg, Day 9): 100.00% | % Reduction Ticks (Ixodes ricinus; Group 2: 2.5% w/v in DMI, 2.5 mg/kg, Day 23): 99.60% | % Reduction Ticks (Ixodes ricinus; Group 2: 2.5% w/v in DMI, 2.5 mg/kg, Day 30): 100.00% | % Reduction Ticks (Ixodes ricinus; Group 2: 2.5% w/v in DMI, 2.5 mg/kg, Day 37): 99.58% | % Reduction Ticks (Ixodes ricinus; Group 2: 2.5% w/v in DMI, 2.5 mg/kg, Day 44): 100.00% | % Reduction Ticks (Ixodes ricinus; Group 2: 2.5% w/v in DMI, 2.5 mg/kg, Day 51): 100.00% | % Reduction Ticks (Ixodes ricinus; Group 2: 2.5% w/v in DMI, 2.5 mg/kg, Day 58): 100.00% | % Reduction Ticks (Ixodes ricinus; Group 2: 2.5% w/v in DMI, 2.5 mg/kg, Day 65): 99.02% | % Reduction Ticks (Ixodes ricinus; Group 2: 2.5% w/v in DMI, 2.5 mg/kg, Day 72): 99.21% | % Reduction Ticks (Ixodes ricinus; Group 2: 2.5% w/v in DMI, 2.5 mg/kg, Day 79): 95.54% | % Reduction Ticks (Ixodes ricinus; Group 2: 2.5% w/v in DMI, 2.5 mg/kg, Day 86): 84.92% | % Reduction Ticks (Ixodes ricinus; Group 2: 2.5% w/v in DMI, 2.5 mg/kg, Day 93): 76.65% | % Reduction Ticks (Ixodes ricinus; Group 3: 5.0% w/v in DMI, 5 mg/kg, Day 2): 70.27% | % Reduction Ticks (Ixodes ricinus; Group 3: 5.0% w/v in DMI, 5 mg/kg, Day 9): 100.00% | % Reduction Ticks (Ixodes ricinus; Group 3: 5.0% w/v in DMI, 5 mg/kg, Day 23): 100.00% | % Reduction Ticks (Ixodes ricinus; Group 3: 5.0% w/v in DMI, 5 mg/kg, Day 30): 100.00% | % Reduction Ticks (Ixodes ricinus; Group 3: 5.0% w/v in DMI, 5 mg/kg, Day 37): 100.00% | % Reduction Ticks (Ixodes ricinus; Group 3: 5.0% w/v in DMI, 5 mg/kg, Day 44): 100.00% | Efficacy against horn flies (Haematobia irritans; 24 hours after infestation through the end of the study (day 36)): at least 90% | % Reduction (Haematobia irritans; Day 1 (5 h)): 81.2% | % Reduction (Haematobia irritans; Day 2 (24 h)): 99.6% | % Reduction (Haematobia irritans; Day 7 (5 h)): 84.2% | % Reduction (Haematobia irritans; Day 8 (24 h)): 99.7% | % Reduction (Haematobia irritans; Day 14 (5 h)): 89.5% | % Reduction (Haematobia irritans; Day 15 (24 h)): 99.2% | % Reduction (Haematobia irritans; Day 21 (5 h)): 67.6% | % Reduction (Haematobia irritans; Day 22 (24 h)): 97.4% | % Reduction (Haematobia irritans; Day 28 (5 h)): 11.7% | % Reduction (Haematobia irritans; Day 29 (24 h)): 90.4% | % Reduction (Linognathus vituli; Group 2: pour-on 2.5% in DES, 2.5 mg/kg, Day 2): 92% | % Reduction (Linognathus vituli; Group 2: pour-on 2.5% in DES, 2.5 mg/kg, Day 7): 100% | % Reduction (Linognathus vituli; Group 2: pour-on 2.5% in DES, 2.5 mg/kg, Day 14): 100% | % Reduction (Linognathus vituli; Group 2: pour-on 2.5% in DES, 2.5 mg/kg, Day 21): 100% | % Reduction (Linognathus vituli; Group 2: pour-on 2.5% in DES, 2.5 mg/kg, Day 28): 100% | % Reduction (Linognathus vituli; Group 3: pour-on 10% in DES, 10 mg/kg, Day 2): 98% | % Reduction (Linognathus vituli; Group 3: pour-on 10% in DES, 10 mg/kg, Day 7): 100% | % Reduction (Linognathus vituli; Group 3: pour-on 10% in DES, 10 mg/kg, Day 14): 100% | % Reduction (Linognathus vituli; Group 3: pour-on 10% in DES, 10 mg/kg, Day 21): 100% | % Reduction (Linognathus vituli; Group 3: pour-on 10% in DES, 10 mg/kg, Day 28): 100% | efficacy against Linognathus vituli (Linognathus vituli; both pour-on formulations, starting day 7 through at least day 56): 100% | efficacy against Linognathus vituli (Linognathus vituli; each of the study groups, day 2): greater than 90% | % Reduction (Linognathus vituli; live lice counts, Group 2: pour-on 2.5% (w/v) in DES, 2.5 mg/kg, Day 35): 92% | % Reduction (Linognathus vituli; live lice counts, Group 2: pour-on 2.5% (w/v) in DES, 2.5 mg/kg, Day 42): 100% | % Reduction (Linognathus vituli; live lice counts, Group 2: pour-on 2.5% (w/v) in DES, 2.5 mg/kg, Day 49): 100% | % Reduction (Linognathus vituli; live lice counts, Group 2: pour-on 2.5% (w/v) in DES, 2.5 mg/kg, Day 56): 100% | % Reduction (Linognathus vituli; live lice counts, Group 3: pour-on 10% (w/v) in DES, 10 mg/kg, Day 35): 98% | % Reduction (Linognathus vituli; live lice counts, Group 3: pour-on 10% (w/v) in DES, 10 mg/kg, Day 42): 100% | % Reduction (Linognathus vituli; live lice counts, Group 3: pour-on 10% (w/v) in DES, 10 mg/kg, Day 49): 100% | % Reduction (Linognathus vituli; live lice counts, Group 3: pour-on 10% (w/v) in DES, 10 mg/kg, Day 56): 100% | concentration required to achieve 90% efficacy, lower than the concentration required from oral administration (D. variabilis; dogs, topical vs oral): ~36% | EC90 (concentration required to achieve 90% efficacy) (D. variabilis; dogs, topical compositions, Sigmoidal Emax model): 0.07 µg/mL (≈ 0.112 µM) | EC90 (concentration required to achieve 90% efficacy) (D. variabilis; oral dosage form): 0.11 µg/mL (≈ 0.176 µM)
